{"source": "patent EP1283052A1", "about": "“Pharmaceutical composition containing caspase-8 and /or caspase-9 useful for overcoming glucocorticoid- and cancer therapy-induced apoptosis of tumours” (Deutsches Krebsforschungszentrum Stiftung des öffentlichen …, priority 2001, dated 2003)", "key": {"[1]": {"system": "caspase-9 and caspase-3", "assay": "Caspase-9 and caspase-3 protein expression in P5 cells (immunofluorescence, Western blot)", "format": "cell-based, human", "conditions": "Fig. 4c", "protocol": "(§1) P5 cells either untreated (CO) or stimulated with cisplatin (CIS, 2 µg/ml) were incubated in the absence or presence of DEX (1 µM). • (a) 6 and 24 h later RNA was extracted and assayed by RT-PCR for expression of caspase-9. Expression of the GAPDH gene served as control for equal conditions. • (b) 24 h after stimulation expression of caspase-9 proteins was examined by immunofluorescence staining using a rabbit polyclonal caspase-9 antibody and a FITC-coupled secondary antibody. Staining with the secondary antibody alone served as control for unspecific binding. • (c) 48 and 72 h after treatment whole cell proteins were extracted and analysed for expression of caspase-9 and caspase-3. The protein sizes in kDa are indicated on the right. […]\n(§2) • (A) Cell culture. […] The mice were given 0.28 mg/L DEX in drinking water, and the amount of water consumed was monitored. […] The tumour volumes were measured using callipers, and calculated using, as an approximation, the formula for volume of a hemi-ellipsoid: π(width^2 x length)/6. […] Early apoptotic changes were identified by staining of cells with fluoresceinthiocyanate (FITC)-conjugated annexin V and propidium iodide (Becton Dickinson, Heidelberg, Germany) and analysed by flow cytometry (FACScan, Becton Dickinson) as described (Herr et al., EMBO J. 16 (1997), 6200-6208) • (E) Immunohistochemistry. […]"}, "[2]": {"system": "caspase-9", "assay": "RT-PCR for caspase-9 mRNA expression in P5 cells", "format": "cell-based, human", "conditions": "cisplatin 2 µg/ml, 6 and 24 h, Fig. 4a", "protocol": "as §1, §2"}}, "data": [{"smiles": "N.N.[Cl][Pt][Cl]", "note": "[cisplatin]", "values": [{"measurement": "protein levels of procaspase-9", "setting": "[1]; Western blot at 48 and 72 h", "result": "reduced the protein levels of procaspase-9"}, {"measurement": "procaspase-3 cleavage", "setting": "[1]; cisplatin alone, 48 and 72 h", "result": "cleaved 48 and 72 h following cisplatin"}, {"measurement": "caspase-9 mRNA expression", "setting": "[2]", "result": "strongly enhanced"}]}]}
